# Activity calls are given as the source filed them. No cut-off for these calls is given here.
# System: Staphylococcus aureus
# Assay: Antibacterial activity against Staphylococcus aureus at 200 ug/disk by standard agar plate assay
# Format: functional, organism-based
structure (smiles),measurement,value
CC(CCCc1coc(CC(C)C(=O)O)c1)Cc1cc(CCCc2ccoc2)co1 (stereo unspecified),Activity,Active

# From ChEMBL document CHEMBL1158307, “Hippospongins AF: New Furanoterpenes from a Southern Australian Marine Sponge Hippospongia sp” (J Nat Prod, 1996)
